Assay results as given in US5458876A, “Control of microbial growth with lantibiotic/lysozyme formulations” (priority 1990, dated 1995).
Ends that are not written are not given here.

How the values were obtained:
L. monocytogenes = assay: Growth of L. monocytogenes in inoculated raw pork sausage (surface response model); assay type: cell-based, Listeria monocytogenes; conditions: alone, 0-500 IU/gm nisin or 0-500 ppm lysozyme; 3 days at 5° C.
Protocol: L. monocytogenes can grow at 5° C. and poses a threat to some processed meats. Its control can include reduction in the rate of growth, bacteriostatic effects, and most desirably, bacteriocidal effects.
Raw sausage was inoculated with L. monocytogenes from a BHI overnight culture; various amounts of nisin and/or lysozyme were incorporated into the sausage. The treated sausage was held for either 3 or 21 days at 5° C. whereupon viable L. monocytogenes were enumerated. A surface response model was constructed over a range of 0-500 IU/gm nisin and 0-500 ppm lysozyme. The surface response model from the 3 day data are set out in the following FIG. 3. […] Similar synergies are seen at other levels of nisin and lysozyme.

Staphlococcus aureus = assay: Minimal inhibitory concentration in BHI broth; assay type: cell-based; conditions: lysozyme alone, 37° C.
Protocol: The synergy of nisin and lysozyme is not limited to the control of L. monocytogenes. The minimal inhibitory concentration (MIC) of nisin was lowered by the addition of lysozyme for the control of other gram positive bacteria. For example, a culture of Staphlococcus aureus was grown overnight in BHI broth and subsequently diluted into fresh BHI broth with various concentrations of nisin, lysozyme or a combination of nisin and lysozyme. […] Accordingly, one can use less nisin to provide an equivalent level of control by the addition of a synergistic amount of lysozyme.

[1] = tested on: Listeria monocytogenes, Scott A; assay: Lysis of washed cells at various pH levels (loss of absorbance at 540 nm); assay type: cell-based; conditions: 100 IU/ml nisin alone or 10 μg/ml lysozyme alone; 37°
Protocol: A culture of Listeria monocytogenes, Scott A, was grown overnight in BHI broth and harvested by centrifugation. The harvested cells were washed with 0.067M Potassium phosphate buffer (pH 6.6) and resuspended in 0.067M potassium phosphate buffer at various pH levels to a final absorbance of about 1.0 at 540 nm as determined in a Bausch & Lomb spectronic 20. Lysis of the bacteria is accompanied by a loss in absorbance at 540 nm. Nisin and lysozyme were added to these solutions to final concentrations of 100 IU/ml nisin and 10 μg/ml lysozyme and the solutions were placed in a 37° water bath whereupon the change in adsorption at 540 nm was monitored.

L. monocytogenes Scott A = assay: Survival of cells in citric acid buffer with subtilin and/or lysozyme; assay type: cell-based, Listeria monocytogenes; conditions: for Surviving Cells After 1 Hour at 25° C.: 10 mM citric acid buffer pH 5.5, untreated 7.5; for Surviving Cells After 1 Hour at 25° C. / log10 reduction: subtilin 100 μ/ml and/or lysozyme 500 ppm; for log10 reduction / effect on the L. monocytogenes cells: 1 hour at 25° C., pH 5.5; for effect on the L. monocytogenes cells: alone, subtilin 100 μ/ml or lysozyme 500 ppm
Protocol: A culture of L. monocytogenes Scott A was grown overnight in BHI broth and diluted 1:100 in 10 mM citric acid buffer (pH 5.5). This preparation, 100 μl, was added to 900 μl of citric acid buffer containing subtilin, lysozyme or both. The subtilin used in this experiment was prepared by the pure culture fermentation of Bacillus subtillus ATCC 6633 as described by Banerjee and Hansen in J. Biol. Chem. 1988 263 (19): 9508-9514.

[2] = tested on: S. typhimurium (ATCC 14028); assay: Survival of cells in citric acid buffer with nisin and/or lysozyme; assay type: cell-based, Salmonella typhimurium
Protocol: A culture of S. typhimurium (ATCC 14028) was grown overnight on nutrient broth, diluted in 10 mM citric acid buffer (pH 3.5) and added to citric acid buffer containing nisin, lysozyme or a combination thereof.

[3] = tested on: Listeria monocytogenes Scott A; assay: Disk inhibition of growth on BHI agar overlay plates; assay type: cell-based; conditions: 10 μl on disks, overnight 37° C.; nisin below 50 IU/ml; lysozyme up to and including 125 μg/ml; blend 50 IU/ml nisin and 50 μg/ml lysozyme
Protocol: A culture of Listeria monocytogenes Scott A was grown overnight in Brain Heart Infusion broth (BHI, Difco Laboratories, Inc.). Overlay plates were prepared using 25 ml of BHI agar overlayed with 4 ml BHI agar containing 10 μl of the overnight culture. Sterile antibiotic sensitivity disks were blotted with 10 μl of nisin, lysozyme or nisin/lysozyme blends at various concentrations; placed on the surface of the overlay plates and incubated overnight at 37° C.

## lysozyme
L. monocytogenes
  control of L. monocytogenes in raw sausage: ineffective
Staphlococcus aureus
  effect on subsequent growth of the bacteria: did not affect
[1]
  pH of maximum lysis: 6.0-6.5 pH
L. monocytogenes Scott A
  Surviving Cells After 1 Hour at 25° C.: 7.4 log10 colony forming units/ml
  log10 reduction: 0.1 log10
  effect on the L. monocytogenes cells: little effect
[2]; 10 mM citric acid buffer pH 3.5, nisin 1000 IU/ml and/or lysozyme 500 μg/ml, untreated 7.18
  Surviving Cells After 1 Hour at 37° C.: 7.08 log10 colony forming units/ml
[2]; 1 hour at 37° C., pH 3.5, nisin 1000 IU/ml and/or lysozyme 500 μg/ml
  log10 reduction: 0.10 log10
[2]; lysozyme 500 μg/ml alone, 1 hour at 37° C., pH 3.5
  effect against S. typhimurium: ineffective
[3]
  inhibition of bacterial growth (zone of inhibition around disks): nor was inhibition observed

## subtilin (WKSESLCTPGCVTGALQTCFLQTLTCNCKISK; cysteine pairing not given here; also: lantibiotic thioether and dehydro residues, places not given here; UniProt P10946 25-56, looked up) [lantibiotic prepared by pure culture fermentation of Bacillus subtillus ATCC 6633, reference compound]
L. monocytogenes Scott A
  Surviving Cells After 1 Hour at 25° C.: 7.2 log10 colony forming units/ml
  log10 reduction: 0.3 log10
  effect on the L. monocytogenes cells: little effect
